Values quoted from earlier work as cited in US20100222262A1, “SUBSTITUTED 1, 3-CYCLOPENTADIONE ATTENUATED ENDOTHELIAL INFLAMMATION AND ENDOTHELIAL-MONOCYTE INTERACTIONS” (METAPROTEOMICS, LLC, priority 2008, published 2010).
Like-named read-outs stand apart in the source and are kept apart here.

System: 85 Kinases

| Molecule | G10 (Gini coefficient) (85 kinases, Concn 10 uM) | hit rate (>50% Inhibition) (85 kinases, Concn 10 uM) | also measured |
| --- | --- | --- | --- |
| N#CC(C#N)=C(N)/C(C#N)=C/c1cc(O)c(O)c(O)c1 [AG183] | 0.460 | 14 | – |
| CC(C)(C)n1nc(-c2ccc(Cl)cc2)c2c(N)ncnc21 [PP2] | – | – | G10 (Gini coefficient) (85 kinases, Concn 1 uM): 0.722; hit rate (>50% Inhibition) (85 kinases, Concn 1 uM): 14 |
| COc1cc(/C=C/C(=O)CC(=O)/C=C/c2ccc(O)c(OC)c2)ccc1O [Curcumin] | – | – | G10 (Gini coefficient) (85 kinases, Concn 50 uM): 0.417; hit rate (>50% Inhibition) (85 kinases, Concn 50 uM): 38 |
| Cn1cc(C2=C(c3cn(CCCSC(=N)N)c4ccccc34)C(=O)NC2=O)c2ccccc21 [Ro31-8220] | – | – | G10 (Gini coefficient) (85 kinases, Concn 1 uM): 0.432; hit rate (>50% Inhibition) (85 kinases, Concn 1 uM): 39 |
| O=S(=O)(c1cccc2cnccc12)N1CCCNCC1 [HA1077] | 0.650 | 19 | – |
| O=S(=O)(NCCNC/C=C/c1ccc(Br)cc1)c1cccc2cnccc12 [H89] | 0.442 | 34 | – |
| Oc1ccc(-c2nc(-c3ccncc3)c(-c3ccc(F)cc3)[nH]2)cc1 [SB202190] | 0.553 | 29 | – |
| CCOc1cc(/C=C(\C#N)C(N)=O)cc(CSc2ccccc2)c1O [ST638] | 0.568 | 14 | – |
| Cc1ccc(NC(=O)c2cccc(N(C)C)c2)cc1NC(=O)c1ccc(O)cc1 [ZM336372] | 0.635 | 11 | – |
| N#C/C(=C\c1ccc(O)c(O)c1)C(=O)c1ccc(O)c(O)c1 [AG538] | 0.417 | 17 | – |
| COc1cc2ncc(-c3ccccc3)nc2cc1OC [AG1296] | 0.498 | 4 | – |
| COc1cc2ncnc(Nc3cccc(Br)c3)c2cc1OC [PD153035] | – | – | G10 (Gini coefficient) (85 kinases, Concn 0.001 uM): 0.616; hit rate (>50% Inhibition) (85 kinases, Concn 0.001 uM): 0 |
| O=C(O)c1cc(N(Cc2ccccc2O)Cc2cc(O)ccc2O)ccc1O [Lavendustin A] | – | – | G10 (Gini coefficient) (85 kinases, Concn 1 uM): 0.726; hit rate (>50% Inhibition) (85 kinases, Concn 1 uM): 0 |
| O=C(O)c1cc(N(Cc2ccccc2O)Cc2ccccc2O)ccc1O [Lavendustin B] | – | – | G10 (Gini coefficient) (85 kinases, Concn 1 uM): 0.515; hit rate (>50% Inhibition) (85 kinases, Concn 1 uM): 0 |
| CN(C)S(=O)(=O)c1ccc2c(c1)/C(=C/c1cc3c([nH]1)CCCC3)C(=O)N2 [SU6656] | – | – | G10 (Gini coefficient) (85 kinases, Concn 1 uM): 0.607; hit rate (>50% Inhibition) (85 kinases, Concn 1 uM): 19 |
| C[S+]([O-])c1ccc(-c2nc(-c3ccncc3)c(-c3ccc(F)cc3)[nH]2)cc1 (stereo not drawn) [SB203580] | – | – | G10 (Gini coefficient): 0.621; hit rate (>50% Inhibition): 17 |
| O=C(O[C@@H]1Cc2c(O)cc(O)cc2O[C@@H]1c1cc(O)c(O)c(O)c1)c1cc(O)c(O)c(O)c1 [EGCG] | 0.495 | 21 | – |
| N#CC(C#N)=Cc1ccc(O)c(O)c1 [AG18] | 0.680 | 1 | – |

| Molecule | G10 (Gini coefficient) (85 kinases, Concn 10 uM) | hit rate (>50% Inhibition) (85 kinases, Concn 10 uM) | also measured |
| --- | --- | --- | --- |
| CC(=O)c1c(O)c(C)c(O)c(Cc2c(O)c3c(c(C(=O)/C=C/c4ccccc4)c2O)OC(C)(C)C=C3)c1O [Rottlerin] | 0.595 | 3 | – |
| COc1cc2ncnc(Nc3cccc(Cl)c3)c2cc1OC [AG1478] | 0.500 | 25 | – |
| O=c1cc(O)cc(/C=C/c2ccc(O)c(O)c2)o1 [Hispidin] | 0.790 | 2 | – |
| CCCCCCOC(=O)[C@]1(O)C[C@@H]2O[C@@]1(C)n1c3ccccc3c3c4c(c5c6ccccc6n2c5c31)C(=O)NC4 [KT5720] | – | – | G10 (Gini coefficient) (85 kinases, Concn 1 uM): 0.423; hit rate (>50% Inhibition) (85 kinases, Concn 1 uM): 33 |
| Nc1ncnc2c1cnn2-c1ccccc1 [PP3] | – | – | G10 (Gini coefficient) (85 kinases, Concn 1 uM): 0.634; hit rate (>50% Inhibition) (85 kinases, Concn 1 uM): 0 |
| O=C1NCc2c1c1c3ccccc3[nH]c1c1[nH]c3ccccc3c21 [K252c] | 0.236 | 58 | – |
| CC[C@H](CO)Nc1nc(NCc2ccccc2)c2ncn(C(C)C)c2n1 [Roscovitine] | – | – | G10 (Gini coefficient): 0.744; hit rate (>50% Inhibition): 10 |
| O=c1c(-c2ccc(O)cc2)coc2cc(O)cc(O)c12 [Genistein] | 0.582 | 0 | – |
| CC(C)(C)c1cc(C=C(C#N)C#N)cc(Br)c1O [AG1024] | 0.568 | 11 | – |
| O=C1c2ccccc2-c2n[nH]c3cccc1c23 [JNK inh II] | 0.445 | 35 | – |
| Cn1cnc2c(NCc3ccccc3)nc(NCCO)nc21 [Olomoucin] | – | – | G10 (Gini coefficient) (85 kinases, Concn 50 uM): 0.556; hit rate (>50% Inhibition) (85 kinases, Concn 50 uM): 13 |
| O=C(NOCC1CC1)c1ccc(F)c(F)c1Nc1ccc(I)cc1Cl [PD184352] | 0.802 | 1 | – |
| O=C1Cc2c([nH]c3ccc([N+](=O)[O-])cc23)-c2ccccc2N1 [Alsterpaullone] | – | – | G10 (Gini coefficient) (85 kinases, Concn 1 uM): 0.633; hit rate (>50% Inhibition) (85 kinases, Concn 1 uM): 22 |
| C[C@@H](N)[C@H]1CC[C@H](C(=O)Nc2ccncc2)CC1 [Y27632] | 0.628 | 13 | – |
| CN[C@@H]1C[C@H]2O[C@@](C)([C@@H]1OC)n1c3ccccc3c3c4c(c5c6ccccc6n2c5c31)C(=O)NC4 [Staurosporine] | – | – | G10 (Gini coefficient) (85 kinases, Concn 1 uM): 0.093 |
| CO[C@H]1[C@@H](OC)C[C@H](C)[C@@H](OC)C2=CC(=O)C=C(NC(=O)/C(C)=C/C=C\[C@H](OC)[C@@H](OC(N)=O)/C(C)=C/[C@@H]1C)C2=O [Herbimycin A] | 0.534 | 0 | – |
| Calphostin C | 0.606 | 2 | – |
